Assay results as given in PubChem BioAssay AID2740 (NMMLSC, 2010).
The source made the active and inactive calls.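 Rule for the calls: active = compounds whose fitted half-maximal concentration for changing the GFP signal is at or below a set limit; inactive = the rest.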

Assay: TOR pathway RPL19A-GFP modulators, concentration series – cell-based, S. cerevisiae, flow cytometry, MLPCN hits, dose response (AID 2740);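 note: background is signal of the same compound in parental non-GFP s288c yeast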
Details: S. cerevisiae RPL19A-GFP strain, flow cytometry fluorescence, 3 h; at 33 µM (top of the series)

SMILES	GFP fluorescence, lower = active (kMESF (background-subtracted))
COc1ccccc1N=Nc1ccc(O)c2ncccc12	32.6 (inactive)
O=S(=O)(/N=C(/Sc1ccccc1)c1ccccc1)c1ccccc1	34.5 (inactive)
CC(c1ccccc1)N1C(=O)/C(=C/c2ccncc2)SC1=S (stereo not given)	20.6 (inactive)
O=C(OCn1ncc(Br)c(Br)c1=O)c1ccc(F)cc1	37.3 (inactive)
CC1=NOC(=O)/C1=C\c1ccc(-c2cc(Cl)ccc2Cl)o1	39 (inactive)
CC(C)Oc1ccc(C(=O)/C=C2/C(=O)Nc3ccccc32)cc1	29 (inactive)
Oc1ccc2ccccc2c1N=Nc1nccs1	51 (inactive)
O=C(Nc1nc(-c2ccccn2)cs1)C1COc2ccccc2O1 (stereo not given)	21.1 (inactive)
CC1(C(=O)NC(=S)NNC(=O)c2ccncc2)CCCCC1	39.9 (inactive)
CCCc1cc(=O)oc2cc(C)cc(OCC(=O)NC3CC3)c12	39 (inactive)
COc1ccc(/C=C/C(=O)C2C(=O)C=C(C)OC2=O)cc1O (stereo not given)	39 (inactive)
COc1ccc(OC)c(S(=O)(=O)ON2C(=O)c3ccccc3C2=O)c1	25.6 (inactive)
CCOc1ccc(N2C(=O)C(Cl)=C(Nc3ccccc3O)C2=O)cc1	45.1 (inactive)
CCCCC(=O)NNC(=S)NC(=O)c1ccc(C)cc1	42.3 (inactive)
COc1ccccc1C(=O)NNC(=S)NC(=O)c1cccs1	43.5 (inactive)
CCN(CC)C(=S)SSC(=S)N(CC)CC	34.1 (inactive)
O=C(COc1ccc(F)cc1Cl)Nc1nc(-c2ccccn2)cs1	35.8 (inactive)
Cc1ccc(C(c2cc(Cl)c3cccnc3c2O)N2CCN(C)CC2)cc1 (stereo not given)	29.8 (inactive)
CN(C)c1ccc(N=Cc2nc(-c3ccccc3)oc2OC(=O)c2cccc(Cl)c2)cc1	44.1 (inactive)
Cc1ccc(S(=O)(=O)N2CC(C(=O)O)=CC[C@H]2c2ccc(Cl)cc2)cc1	37.3 (inactive)

SMILES	GFP fluorescence, lower = active (kMESF (background-subtracted))
N#C/C(=C\c1ccccn1)c1nc2ccccc2s1	54.2 (inactive)
COc1ccc(CCNC2=C(Cl)C(=O)N(CCc3ccc(OC)c(OC)c3)C2=O)cc1OC	42.6 (inactive)
C=CCn1c(C)c(/C=C/c2cc[n+](C)cc2)c2ccccc21	52.8 (inactive)
O=C(O)c1ccc2c(c1)C(=O)/C(=C/c1ccccc1)C2=O	36.8 (inactive)
O=C(Sc1cccc2cccnc12)c1ccccc1Br	34.8 (inactive)
N/C(=N\OC(=O)c1ccccc1Cl)c1ccc(Cl)cc1	38.2 (inactive)
Cc1[nH][nH]c(=O)c1C(c1ccc(-c2ccc(Cl)c(Cl)c2)o1)c1c(C)[nH][nH]c1=O	43.4 (inactive)
CC1=CC(=O)C(C(C)C)=C/C1=N/OS(=O)(=O)c1ccccc1	23.9 (inactive)
Cc1ccnc(N2C(=O)c3cccc4c([N+](=O)[O-])ccc(c34)C2=O)c1	56.1 (inactive)
Cc1ccc(C(CC(=O)O)NC(=O)c2ccc(S(=O)(=O)N3CC(C)OC(C)C3)cc2)cc1 (stereo not given)	39.2 (inactive)
O=C(Oc1cccc2cccnc12)c1ccc(Br)o1	44.1 (inactive)
O=C1C(Cl)=C(Nc2ccccc2O)C(=O)N1CCc1ccccc1	42.1 (inactive)
O=C(NC(=S)Nc1ccc2oc(=O)ccc2c1)c1cccc(Cl)c1	37.2 (inactive)
CCOc1ccc(C(Nc2cccnc2)c2cc(Cl)c3cccnc3c2O)cc1 (stereo not given)	28.3 (inactive)
COc1cc(C=C2C(=O)c3ccccc3C2=O)cc(OC)c1	41.6 (inactive)
COc1ccccc1N1C(=O)c2cccc3c(C(=O)O)ccc(c23)C1=O	44.8 (inactive)
COc1cccc(/C=C2\C(=O)N(c3cccc(C)c3)C(=O)c3ccccc32)c1	42.4 (inactive)
Cc1cc(NC(=O)c2cccnc2Cl)ccc1NC(=O)c1cc2ccccc2o1	39.6 (inactive)
CCC(=O)Oc1oc(-c2ccccc2)nc1C=Nc1ccc(C)cc1	40.5 (inactive)
O=[N+]([O-])c1ccc(Sc2nc3ccccc3o2)c([N+](=O)[O-])c1	45.5 (inactive)

SMILES	GFP fluorescence, lower = active (kMESF (background-subtracted))
COc1ccc(C2=CC(=O)N(Nc3ccccc3)C2=O)cc1	34.6 (inactive)
COc1ccccc1N=Cc1nc(-c2ccccc2)oc1OC(C)=O	46.8 (inactive)
O=C1C(=O)c2ccccc2-c2ccccc21	17.7 (inactive)
Cc1cc(C)nc(S/C=C/C(=O)c2ccccc2)n1	47.4 (inactive)
O=[N+]([O-])c1cc(O)c2ncccc2c1	45 (inactive)
COc1cc(CNC(=O)CCCCCCC(C)C)ccc1O	48.5 (inactive)
CC(C)(C)c1cc(C(c2cccnc2)N2CCN(CCO)CC2)cc(C(C)(C)C)c1O (stereo not given)	4.63 (inactive)
COc1ccc(C(=O)/C=C2/C(=O)Nc3ccccc32)cc1	38 (inactive)
O=S1(=O)C=C(Sc2nc3ccccc3s2)c2ccccc21	36 (inactive)
C=CCOc1ccccc1C(=O)/C=C1/C(=O)Nc2ccccc21	41.5 (inactive)
COc1ccccc1C(=O)NNC(=S)NC(=O)c1ccco1	35.5 (inactive)
COc1ccc(-c2cc(C(F)(F)F)nc(S(C)(=O)=O)n2)cc1	44.7 (inactive)
COc1ccc(/C=C/C(=O)c2cc(Br)ccc(=O)c2O)cc1	-35.7 (inactive)
CCCCc1ccc(NC(=O)CC(C)=O)cc1	47.2 (inactive)
O=C1CCN(S(=O)(=O)c2ccccc2)CCN1CCOCc1ccc(F)cc1	36.9 (inactive)
COc1ccc([C@@]2(C(C)C)ON(c3ccccc3C(F)(F)F)C2=O)cc1	45.9 (inactive)
O=[N+]([O-])c1cnc(Sc2ccncn2)s1	31.1 (inactive)
COc1cccc(/C=C2\SC(=S)N(CCCC(=O)Nc3ccc(C(=O)O)cc3)C2=O)c1	38.2 (inactive)
O=C1C(Cl)=C(NCCc2ccccc2)C(=O)N1CCc1ccccc1	43.1 (inactive)
C/C(=N\NC(=O)c1cc2ccccc2cc1O)c1ccccn1	45.5 (inactive)
